Measured values from US4232121A, “Process for selecting methine dyes which inhibit cell growth” (Eastman Kodak Company, priority 1978, dated 1980).
Like-named read-outs stand apart in the source and are kept apart here.

Assays:
[1] = Oxidation potential (Eox) of the dye; format: physicochemical; settings: Tables I, II, V, VI
[2] = system: Bacillus pumilus strain K-1; test: Inhibition of bacterial growth, filter paper on inoculated agar plates; format: cell-based; settings: Tables V and VI; 10^-3 molar, three days
[3] = Reduction potential (ER) of the dye; settings: Tables I, II, V, VI, VII, IX
Sea Urchin Eggs = test: Inhibition of cell division in fertilized sea urchin eggs; format: cell-based; settings: arbitrary scale 0 to 5, 5 most active; dye 10^-5 to 10^-6 molar, 60 minutes after fertilization
Procedure: To suspensions in filtered sea water of fertilized sea urchin eggs there was added, three minutes after fertilization, methanolic solutions of the dyes in an amount sufficient to yield a final concentration of dye of between 10^-5 and 10^-6 molar. The final concentration of methanol was, at a maximum 1×10^-4 molar. The eggs were visually observed at 60 minutes after fertilization to determine if cell division and the formation of mitotic apparatus had been inhibited. A rating was assigned based on the concentration of dye required to inhibit cell division and synthesis of DNA.

[4] = Solubility / stability comments on the dyes; format: physicochemical; settings: Table IX
[5] = not told

| % Bound (Bacillus pumilus (K-1)) [%] | Comment: solubility [4] | ER [5] | reduction potential (ER) [5] [volts] | SMILES | Eox [1] | Diameter of Inhibition [2] | ER [3] | Sea Urchin Eggs Activity (Sea Urchin Eggs) |
| --- | --- | --- | --- | --- | --- | --- | --- | --- |
| – | – | – | – | CCN1C(=CC=Cc2sc3cc([N+](=O)[O-])ccc3[n+]2CC)Sc2cc([N+](=O)[O-])ccc21 [17,6,6'-dinitro] | +.96 | None | -.58 | – |
| 93.1 | Insoluble | -1.12 | -1.12 | CCN1C(=CC=Cc2sc3ccc4ccccc4c3[n+]2CC)Sc2ccc3ccccc3c21 [Dye 12] | – | – | – | 0 |
